Source: patent publication US5750389A, “Purified saccharose-synthase, process for its production and its use” (Forschungszentrum Julich GmbH, priority 1992, dated 1998)

Columns and labels:
[1] = system: purified sucrose-synthase from rice; experiment: Substrate spectrum for the synthesis of disaccharides: variation of the acceptor, reacted with UDP-glucose; format: biochemical; conditions: for Relative Activity %: acceptor substrates reacted with UDP-glucose, D-fructose = 100
Description: 12. Substrate Spectrum of the Saccharose-synthase from rice for the synthesis of Disaccharides.
B: Variation of the Acceptor.
For the synthesis reaction, the acceptor was varied. Apart from the natural acceptor, other diastereomers of D-fructose, like D-psicose, D-tagatose, D-sorbose were introduced. Further, several keytoses were systematically tested. Apart from Aldoses, nonsugar acceptors were also tested.

[2] = system: purified sucrose-synthase from rice; experiment: Substrate spectrum of the sucrose-synthase for the splitting reaction (saccharide + UDP); format: biochemical; conditions: for replacement of saccharose in the splitting reaction (in words): Table 3; for Relative Activity %: substrate splitting with UDP, 2 mM UDP, saccharide 75 to 500 mM, 3 h at 30° C., pH 7.2, Saccharose = 100
Description: 11. Substrate Spectrum of the Sucrose-Synthase for the splitting reaction (I)
For the splitting reaction of the sucrose-synthase, sucrose was replaced by other disaccharide or trisaccharide:
α-Glc 1-2 β-Fruc+UDP (TDP) UDP-Glc (TDP-Glc)
The concentration of the saccharide amounted to 75 to 500 mM in the reaction composition. 2 mM UDP or TDP and as a rule 10 to 80 mU enzyme were introduced. After 3 h at 30° C. and pH 7.2 (200 mM Hepes-NaOH), the reaction was stopped at 95° C. 5 min. The formation of nucleotide sugars was followed with HPLC and compared with a control (without enzyme).

[3] = system: purified Sucrose-synthase; experiment: Substrate spectrum of the nucleosidediphosphate; format: biochemical, rice; conditions: pH 7.2, 30° C., FIG. 2
Description: 1. Substrate spectrum of the nucleosidediphosphate.
UDP, TDP, CDP, ADP and GDP were investigated. The reaction compositions contained:
100 μl Nucleosidediphosphate (15-90 mM)
100 μl purified Sucrose-synthase (21.1 mU/ml)
The reaction composition was incubated at 30° C. and stopped at different times (5 min. at 95° C.). After filtration of the sample through a 0.22 μm filter, the resulting nucleotide sugar was analyzed by means of ionpair HPLC.

[4] = system: rice enzyme (sucrose-synthase); experiment: Kinetics (Vmax, Km) of the splitting reaction; format: biochemical; conditions: sucrose 500 mM; for Km: UDP or TDP varied 0 to 10 mM, 1 h at 30° C., pH 6.5
Description: […] All reaction mixtures were incubated for 1 h at 30° C. and pH 6.5 (Hepes-NaOH 200 mM). The samples were treated as described above and analyzed with HPLC. […] The substrate excess inhibition can be countered by higher enzyme quantities.

saccharose synthase = experiment: Dependence on divalent metal ions; format: biochemical, rice; conditions: 1 mM of metal ions
Source text: 9. Dependence on Divalent Metal Ions

[5] = system: purified saccharose synthase from rice; experiment: Substrate spectrum for the synthesis of disaccharides: variation of the nucleotide sugar, fructose as acceptor; format: biochemical; conditions: for reaction of UDP-sugar with the rice enzyme (in words): Table 4; for Relative Activity %: UDP-sugars with fructose as acceptor, 2 hours at 30° C., pH 7.5, UDP-glucose = 100
Description: A: Variation of the Nucleotide Sugar.
For the synthesis reaction the nucleotide sugars were varied:
The composition contained:
The composition was incubated for 2 hours at 30° C. and stopped for 5 minutes at 95° C. With HPLC, with comparison with a control (without enzyme) the development of UDP was followed.

SMILES: OC[C@H]1O[C@H](OC[C@H]2O[C@H](O[C@]3(CO)O[C@H](CO)[C@@H](O)[C@@H]3O)[C@H](O)[C@@H](O)[C@@H]2O)[C@H](O)[C@@H](O)[C@H]1O [Raffinose]
- acceptor of sucrose-synthase (in words) [1]: can also serve as acceptors
- Relative Activity % [1]: 8.4%
- replacement of saccharose in the splitting reaction (in words) [2]: can replace the saccharose
- Relative Activity % [2]: 3.8%

SMILES: Nc1ccn([C@@H]2O[C@H](COP(=O)(O)OP(=O)(O)O)[C@@H](O)[C@H]2O)c(=O)n1 [CDP]
- acceptance of the nucleosidediphosphate (rate of NDP-glucose formation) [3]: accepted in the sequence UDP, TDP, ADP, CDP and GDP

SMILES: O=c1ccn([C@@H]2O[C@H](COP(=O)(O)OP(=O)(O)O)[C@@H](O)[C@H]2O)c(=O)[nH]1 [UDP]
- acceptance of the nucleosidediphosphate (rate of NDP-glucose formation) [3]: accepted in the sequence UDP, TDP, ADP, CDP and GDP
- Km [4]: 400 µM
- Ki ([4]; with 0.9 mU enzyme, pH 6.5, 30° C., read-out: substrate excess inhibition Ki(S)): 16 mM

SMILES: CN1CCC(O)C1 (centres unmarked) [3-hydroxy-N-methyl-pyrrolidine]
- Relative Activity % [1]: 1.9%

SMILES: OC[C@H]1O[C@@](CO)(O[C@H]2O[C@H](CO)[C@@H](O)[C@H](O)[C@H]2O)[C@@H](O[C@H]2O[C@H](CO)[C@@H](O)[C@H](O)[C@H]2O)[C@@H]1O [Melizitose]
- Relative Activity % [1]: 0.6%
- replacement of saccharose in the splitting reaction (in words) [2]: can replace the saccharose
- Relative Activity % [2]: 0.4%

SMILES: OCCN1CCCCC1
- Relative Activity % [1]: 9.4%

SMILES: OCC(O)CN1CCCC1 (centres unmarked) [3-pyrrolidino-1,2-propandiol]
- Relative Activity % [1]: 9.6%

SMILES: OC[C@H]1O[C@@](CO)(O[C@H]2O[C@H](CO)[C@@H](O)[C@H](O)[C@H]2O)[C@@H](O)[C@@H]1O [Saccharose]
- Relative Activity % [2]: 100%

SMILES: CC(C)[C@@H](O)[C@H](O)C(=O)CO [5,6-dideoxy-5-methyl-D-fructose]
- Relative Activity % [1]: 19.0%

SMILES: C[C@H](O)[C@@H](O)[C@H](O)C(=O)CO [6-desoxy-L-sorbase]
- Relative Activity % [1]: 8.8%

SMILES: OC[C@H]1O[C@@H](O[C@@H]2[C@@H](CO)OC(O)(CO)[C@H]2O)[C@H](O)[C@@H](O)[C@H]1O (mixture of isomers) [Lactulose]
- acceptor of sucrose-synthase (in words) [1]: can also serve as acceptors
- Relative Activity % [1]: 12.3%

SMILES: O=C(CO)[C@@H](O)[C@H](O)[C@@H](O)CO [L-sorbose]
- acceptor of sucrose-synthase (in words) [1]: acceptors
- Relative Activity % [1]: 6.0%

SMILES: [Fe+2] [Fe^2+]
- influence of metal ions on the enzyme activity (saccharose synthase): completely inactivated

SMILES: OC[C@H]1O[C@H](OC[C@H]2OC(O)(CO)[C@@H](O)[C@@H]2O)[C@H](O)[C@@H](O)[C@@H]1O (some centres unmarked) [Isomaltulose]
- Relative Activity % [1]: 3.1%
- replacement of saccharose in the splitting reaction (in words) [2]: can replace the saccharose
- Relative Activity % [2]: 1.0%

SMILES: CC(=O)[C@@H](O)[C@H](O)C(=O)CO [5-keto-6-deoxy-D-fructose]
- Relative Activity % [1]: 25.1%

SMILES: [Mn+2] [Mn^2+]
- influence of metal ions on the enzyme activity (saccharose synthase): influenced only slightly
- influence of metal ions on the enzyme activity, TDP as the substrate (saccharose synthase): stimulation of the enzyme activity

SMILES: OC[C@@]12OC[C@@H](O1)[C@@H](O)[C@@H](O)[C@@H]2O [Sedoheptulose Anhydride]
- Relative Activity % [1]: 1.1%

SMILES: CC1(C)S[C@@H]2[C@H](NC(=O)[C@H](N)c3ccccc3)C(=O)N2[C@H]1C(=O)O [Ampicillin, reference compound]
- Relative Activity % [2]: 2.4%

SMILES: OC1CCNC1 (centres unmarked) [3-hydroxypyrrolidine]
- Relative Activity % [1]: 6.3%

SMILES: Nc1nc2c(ncn2[C@@H]2O[C@H](COP(=O)(O)OP(=O)(O)O)[C@@H](O)[C@H]2O)c(=O)[nH]1 [GDP]
- acceptance of the nucleosidediphosphate (rate of NDP-glucose formation) [3]: accepted in the sequence UDP, TDP, ADP, CDP and GDP

SMILES: O[C@@H]1[C@@H](O)[C@@H]2OC[C@@H](O2)[C@H]1O [1,6-Anhydroglucose]
- acceptor of sucrose-synthase (in words) [1]: acceptors
- Relative Activity % [1]: 9.1%

SMILES: O=c1ccn([C@@H]2O[C@H](COP(=O)(O)OP(=O)(O)O[C@H]3OC[C@@H](O)[C@H](O)[C@H]3O)[C@@H](O)[C@H]2O)c(=O)[nH]1 [UDP-xylose]
- reaction of UDP-sugar with the rice enzyme (in words) [5]: can be reacted with the rice enzyme
- Relative Activity % [5]: 1.7%

SMILES: CN1[C@@H]2CC[C@H]1C[C@@H](O)C2 [Tropin]
- Relative Activity % [1]: 10.3%

SMILES: CC[C@@H](O)[C@H](O)C(=O)CO [5,6-dideoxy-D-fructose]
- Relative Activity % [1]: 7.6%

SMILES: [Cu+2] [Cu^2+]
- influence of metal ions on the enzyme activity (saccharose synthase): completely inactivated

SMILES: OC[C@H]1O[C@@](CO)(O[C@@H]2C[C@@H](O)[C@H](O)[C@@H](CO)O2)[C@@H](O)[C@@H]1O [2-deoxy-saccharose]
- Relative Activity % [2]: 55%

SMILES: CCCCCCCCO[C@@H]1O[C@H](CO)[C@@H](O)[C@H](O)[C@H]1O [Octyl-β-D-glucopyranoside]
- acceptor of sucrose-synthase (in words) [1]: acceptors
- Relative Activity % [1]: 0.5%

SMILES: O=C(CO)[C@H](O)[C@H](O)[C@H](O)CO [D-psicose]
- Relative Activity % [1]: 14.1%

SMILES: [Mg+2] [Mg^2+]
- influence of metal ions on the enzyme activity (saccharose synthase): influenced only slightly

SMILES: O=C(CO)[C@@H](O)[C@H](O)CO [D-xylulose]
- acceptor of sucrose-synthase (in words) [1]: acceptors
- Relative Activity % [1]: 40.7%

SMILES: O=C(CO)[C@@H](O)[C@@H](O)[C@H](O)CO [D-tagatose]
- Relative Activity % [1]: 28.3%

SMILES: O=C[C@@H](O)[C@@H](O)[C@H](O)[C@H](O)CO [D-mannose]
- acceptor of sucrose-synthase (in words) [1]: acceptors
- Relative Activity % [1]: 3.9%

SMILES: O=C(CO)[C@@H](O)[C@H](O)[C@H](O)CO [D-fructose]
- Relative Activity % [1]: 100%

SMILES: O=C[C@H](O)[C@@H](O)[C@@H](O)CO [L-arabinose]
- acceptor of sucrose-synthase (in words) [1]: acceptors
- Relative Activity % [1]: 3.2%

SMILES: CC(=O)N[C@H]1[C@@H](OP(=O)(O)OP(=O)(O)OC[C@H]2O[C@@H](n3ccc(=O)[nH]c3=O)[C@H](O)[C@@H]2O)O[C@H](CO)[C@@H](O)[C@@H]1O [UDP-N-acetylglucosamine]
- reaction of UDP-sugar with the rice enzyme (in words) [5]: can be reacted with the rice enzyme
- Relative Activity % [5]: 1.8%

SMILES: Nc1ncnc2c1ncn2[C@@H]1O[C@H](COP(=O)(O)OP(=O)(O)O)[C@@H](O)[C@H]1O [ADP]
- acceptance of the nucleosidediphosphate (rate of NDP-glucose formation) [3]: accepted in the sequence UDP, TDP, ADP, CDP and GDP

SMILES: Cc1cn([C@H]2C[C@H](O)[C@@H](COP(=O)(O)OP(=O)(O)O)O2)c(=O)[nH]c1=O [TDP]
- acceptance of the nucleosidediphosphate (rate of NDP-glucose formation) [3]: accepted in the sequence UDP, TDP, ADP, CDP and GDP
- Km [4]: 650 µM

SMILES: CCN1CCC(O)C1 (centres unmarked) [1-ethyl-3-hydroxy-pyrrolidine]
- Relative Activity % [1]: 10.4%

SMILES: [Ca+2] [Ca^2+]
- influence of metal ions on the enzyme activity, TDP as the substrate (saccharose synthase): stimulation of the enzyme activity

SMILES: O=C[C@@H](O)[C@@H](O)[C@H](O)CO [D-lyxose]
- acceptor of sucrose-synthase (in words) [1]: acceptors
- Relative Activity % [1]: 14.7%

SMILES: O=C(CO)[C@@H](O[C@H]1O[C@H](CO)[C@@H](O)[C@H](O)[C@H]1O)[C@H](O)[C@H](O)CO [Turanose]
- Relative Activity % [1]: 0.5%
